pIC50: −log10 of the molar value. Values after ≈ are worked out from the molar mass of the structure shown. Where two headings read alike, the source gives them in different places.
Assays:
aFGF = aFGF (Homo sapiens, UniProt P05230); assay: Binding of BALB/c 3T3 cells (cell surface heparan sulfate) to immobilised aFGF; type: cell-based; settings: binding of mouse 3T3 cells to immobilised aFGF
Protocol: (§1) The FGF-heparan sulfate interaction was assessed, as reported earlier (39), by measuring the binding of BALB/c 3T3 fibroblasts to PVC immobilised FGFs, cell binding being detected by Rose Bengal staining of adherent cells. Sulfated oligosaccharides were examined for their ability to inhibit this cell adhesion process, which is totally dependent upon heparan sulfate structures on the surface of BALB/c 3T3 cells (39).

[1] = target: T1, human platelet heparanase (Homo sapiens, UniProt Q9Y251); assay: Heparanase inhibition assay; type: biochemical
T1 construct: from tissue; host or cells: human platelets
T1 sequence (Q9Y251 158-543 limits assumed): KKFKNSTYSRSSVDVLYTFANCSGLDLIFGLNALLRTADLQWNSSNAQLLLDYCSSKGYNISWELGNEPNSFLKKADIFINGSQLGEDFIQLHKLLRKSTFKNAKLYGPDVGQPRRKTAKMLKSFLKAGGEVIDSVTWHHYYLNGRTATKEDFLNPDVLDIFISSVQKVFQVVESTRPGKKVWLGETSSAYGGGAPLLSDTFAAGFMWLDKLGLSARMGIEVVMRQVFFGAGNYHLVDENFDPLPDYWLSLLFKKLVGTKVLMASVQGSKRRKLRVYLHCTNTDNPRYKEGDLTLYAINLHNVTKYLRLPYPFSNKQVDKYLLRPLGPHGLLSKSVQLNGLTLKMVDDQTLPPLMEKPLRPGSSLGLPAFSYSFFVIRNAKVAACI
T1 sequence (Q9Y251 36-109 limits assumed): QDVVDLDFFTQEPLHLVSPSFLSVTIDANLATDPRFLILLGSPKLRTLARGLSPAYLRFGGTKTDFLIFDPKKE
Excerpt: The heparanase assay is based on the observation that the serum protein, histidine-rich glycoprotein (HRG), binds to heparan sulfate chains and masks the heparanase cleavage site. Based on the finding that heparanase-cleaved heparan sulfate fails to bind to HRG a heparanase assay has been developed which involves digesting ^3 H-labelled heparan sulfate chains with heparanase, binding the digested heparan sulfate to HRG coupled beads and measuring unbound ^3 H label. With increasing digestion of the substrate an increasing amount of ^3 H label fails to bind to the HRG beads.
Initially, bovine intestinal heparan sulfate (Mr av 32 kDa) was partially de-N-acetylated by heating in hydrazine hydrate (36) and re-acetylated with ^3 H-acetic anhydride.
Activity was determined by the rate of production of smaller (approx 5 kDa) heparan sulfate fragments that were not bound following passage of the incubation mixture (100 μl) through HRG-Sepharose mini-columns (200 μl packed beads) which retained the larger uncleaved and partially cleaved substrate.
In heparanase-inhibition assays, different concentrations of inhibitor were added to the enzyme prior to addition of radiolabelled substrate, the inhibitor being retained in the reaction mixture throughout the incubation period.

bFGF = bFGF (Homo sapiens, UniProt P09038); assay: Binding of BALB/c 3T3 cells (cell surface heparan sulfate) to immobilised bFGF; type: cell-based; settings: binding of mouse 3T3 cells to immobilised bFGF
Sequence of bFGF (P09038 134-288, species assumed): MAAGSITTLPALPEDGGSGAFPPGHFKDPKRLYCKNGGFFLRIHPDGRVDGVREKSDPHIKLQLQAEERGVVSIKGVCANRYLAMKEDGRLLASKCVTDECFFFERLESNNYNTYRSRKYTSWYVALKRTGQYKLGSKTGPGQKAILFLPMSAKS
Protocol: as §1

[2] = test system: thrombin time and activated partial thromboplastin time; assay: Anticoagulant activity (thrombin time and activated partial thromboplastin time); type: biochemical; settings: percentage of heparin activity (100%)
Protocol: The anticoagulant activity of each sulfated oligosaccharide was assessed as previously described (35), using both thrombin time and activated partial thromboplastin time procedures. The activity of each preparation was compared with a heparin control and anticoagulant activity expressed as a percentage of heparin activity.

air pouch inflammation = assay: Air pouch inflammation model (thioglycollate); type: in vivo, mouse; settings: 25 mg/kg subcut., ± SEM
Protocol: The assay is based on a previously reported procedure (40). Subcutaneous air pouches were formed on the backs of mice by injecting 5 ml of sterile air below the skin of a shaved area between the scapulae of an anaesthetised mouse on day 1. On day 3 the pouch was reinflated by the injection of 2.5 ml of air. Inflammation was induced on day 6 by injecting directly into the pouch 1.0 ml of 56 mg/ml thioglycollate or 1.0 ml of saline as a control. Approximately 17-20 hrs after thioglycollate injection the animals were killed by cervical dislocation and the cellular contents of the pouch retrieved by the injection of 2.5 ml of ice cold PBS/5% FCS. Sulfated oligosaccharides were tested for their ability to inhibit the inflammatory reaction by being injected subcut. (50 μl in PBS) in a separate site immediately following administration of the thioglycollate. Prednisolone was used as a control anti-inflammatory drug, being injected subcut. in oil at 25 mg/kg. The total cellular contents of each pouch was determined using a Coulter Counter and different leukocyte subpopulations were assessed by immunofluorescent flow cytometry.

[3] = target: T1, human platelet heparanase; settings: reference 42; cited from earlier work
[4] = test system: human angiogenesis in vitro; assay: Human angiogenesis assay (placental blood vessel fragments in fibrin gel); type: cell-based; settings: for inhibition of human angiogenesis: in words
Protocol: The assay method used is described in International Patent Application No. PCT/AU95/00105, the disclosure of which is incorporated herein by reference. Blood vessels, approx 1-2 mm in diameter and 2-5 cm in length, were excised from the surface of human placentas within 6 hours of birth. The vessels were placed in Hank's BSS containing […] of fungizone and cut into 1-2 mm length fragments using fine dissecting forceps and iridectomy scissors. Vessel fragments were freed of residual clots and soaked in Hank's BSS before use. Dissecting and sectioning of vessels was performed with the aid of a magnifier lamp (Maggylamp, Newbound, Balmain, NSW, Australia). Similar angiogenic responses were obtained from blood vessels of venular and arterial origin but, for each assay, vessel fragments from only one vessel were used.
Angiogenesis assays were performed in 24 or 48 well culture plates (Costar, Cambridge, Mass.). In the 24 well format, 30 μl of bovine thrombin (50 NIH units/ml in 0.15 M NaCl; Sigma Chemical Co., St Louis, Mo.) was added to each well followed by 1.0 ml/well of 3 mg/ml bovine fibrinogen (Sigma) in Medium 199. The thrombin and fibrinogen were mixed rapidly and one vessel fragment quickly placed in the centre of the well before clot formation. Usually fibrin gel formation occurred in 30 seconds and the vessel fragment was left suspended in the gel. Following gel formation 1.0 ml/well of Medium 199 supplemented with 20% foetal calf serum (FCS), 0.2 mg ε-amino caproic acid, L-glutamine and antibiotics (gentamycin and fungazone) was added. In the 48 well format all reagent volumes were halved. Vessels were cultured at 37° C. in a humidified environment for 14-21 days with the medium being changed twice weekly. Angiogenesis was quantified by computer based image analysis, using NIH Image software, of digital images of the cultures obtained with a Dycam digital camera mounted on an inverted microscope (Olympus, Tokyo, Japan).

[5] = test system: rat mammary adenocarcinoma 13762 MAT; assay: Metastasis assay (lung metastases of 13762 MAT); type: in vivo; settings: for Metastasis (% Control): 13762 MAT cells i.v., 2 mg/rat at time of tumour cell injection, lungs, ± SEM (n = 4)
Protocol: The antimetastatic activity of the different sulfated oligosaccharides was assessed using the highly metastatic rat mammary adenocarcinoma 13762 MAT (35). The tumour cells were maintained in vitro as previously described (35). Female Fisher 344 rats, (10-13 weeks of age) were injected i.v. with 2×10^5 13762 MAT cells in 0.6 ml RPMI 1640 medium containing 10% FCS. At the time of tumour cell injection animals were also injected with 2 mg of sulfated oligosaccharide, similar results being obtained if the oligosaccharide was injected i.v., i.p. or subcut. Lungs were removed from the rats 13 days following tumour cell injection, placed in Bouin's solution for at least 24 hours and lung metastases then assessed under a dissecting microscope. The number of lung metastases in sulfated oligosaccharide treated rats was compared with that observed in control animals, with a minimum of four animals being included in each group.

[6] = test system: human angiogenesis in vitro; settings: reference 42; cited from earlier work

Sequence of aFGF (P05230 whole entry, species assumed): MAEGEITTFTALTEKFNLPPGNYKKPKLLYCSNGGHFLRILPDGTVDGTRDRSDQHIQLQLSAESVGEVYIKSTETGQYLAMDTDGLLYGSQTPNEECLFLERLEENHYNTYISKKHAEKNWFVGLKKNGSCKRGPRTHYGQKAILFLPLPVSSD

## O=S(=O)(O)OC[C@H]1O[C@H](O[C@H]2[C@H](OS(=O)(=O)O)[C@@H](OS(=O)(=O)O)[C@@H](O[C@H]3[C@H](OS(=O)(=O)O)[C@@H](OS(=O)(=O)O)[C@@H](O[C@H]4[C@H](OS(=O)(=O)O)[C@@H](OS(=O)(=O)O)C(OS(=O)(=O)O)O[C@@H]4COS(=O)(=O)O)O[C@@H]3COS(=O)(=O)O)O[C@@H]2COS(=O)(=O)O)[C@H](OS(=O)(=O)O)[C@@H](OS(=O)(=O)O)[C@@H]1O[C@H]1O[C@H](COS(=O)(=O)O)[C@@H](O[C@H]2O[C@H](COS(=O)(=O)O)[C@@H](OS(=O)(=O)O)[C@H](OS(=O)(=O)O)[C@H]2OS(=O)(=O)O)[C@H](OS(=O)(=O)O)[C@H]1OS(=O)(=O)O (some centres unmarked) [Maltohexaose 20/20]
aFGF; read-out: IC50 aFGF, Table 2
  pIC50: 5.12
[1]; read-out: IC50 Heparanase, Table 2
  pIC50: 5.71
bFGF; read-out: IC50 bFGF, Table 2
  pIC50: 5.68
[2]; Table 2
  Anticoagulant Activity: 3.3%

## C[C@]12C=CC(=O)C=C1CC[C@@H]1[C@@H]2[C@@H](O)C[C@@]2(C)[C@H]1CC[C@]2(O)C(=O)CO [Prednisolone]
Air pouch inflammation; Expt 1
  Leukocyte Infiltrate in Air Pouch (% Control): 56 ± 14%
Air pouch inflammation; Expt 2
  Leukocyte Infiltrate in Air Pouch (% Control): 44 ± 3%

## Cc1ccc(C(=O)Nc2ccc(S(=O)(=O)O)c3cc(S(=O)(=O)O)cc(S(=O)(=O)O)c23)cc1NC(=O)c1cccc(NC(=O)Nc2cccc(C(=O)Nc3cc(C(=O)Nc4ccc(S(=O)(=O)O)c5cc(S(=O)(=O)O)cc(S(=O)(=O)O)c45)ccc3C)c2)c1 [Suramin]
[3]
  heparanase inhibitory activity: moderate anti-angiogenic and heparanase inhibitory activity
[4]; Homo sapiens, Table 1, added at commencement of culture, read-out: 50% Inhibitory Concn, Angiogenesis
  IC50: 50 µg/mL (≈ 38.5 µM)
[5]
  Metastasis (% Control): 74 ± 8%
[2]; Table 1
  Anticoagulant Activity: 0.1%
[6]
  anti-angiogenic activity: moderate anti-angiogenic and heparanase inhibitory activity

## Galactotetraose
[1]; Table 3
  IC50 Heparanase: 3.5 µg/mL
bFGF; Table 3
  IC50 bFGF: 9 µg/mL
[2]; Table 3
  Anticoagulant Activity: 1.0%

## Heparin
[4]; Table 1, added at commencement of culture
  50% Inhibitory Concn, Angiogenesis: > 2000 µg/mL
[4]
  inhibition of human angiogenesis: little anti-angiogenic activity
[1]; Table 1
  50% Inhibitory Concn, Heparanase: 1 µg/mL
[5]
  Metastasis (% Control): 20 ± 3%
[2]; Table 1
  Anticoagulant Activity: 100%

## Maltoheptaose
aFGF; Table 2
  IC50 aFGF: 27 µg/mL
[1]; Table 2
  IC50 Heparanase: 3 µg/mL
bFGF; Table 2
  IC50 bFGF: 10 µg/mL
[2]; Table 2
  Anticoagulant Activity: 3.9%

## Maltopentaose
aFGF; Table 2
  IC50 aFGF: 27 µg/mL
[4]
  inhibition of human angiogenesis: potent antimetastatic and anti-angiogenic activity
[1]; Table 2
  IC50 Heparanase: 4 µg/mL
bFGF; Table 2
  IC50 bFGF: 37.5 µg/mL
[5]; in words
  antimetastatic activity: potent antimetastatic and anti-angiogenic activity
[2]; Table 2
  Anticoagulant Activity: 3.2%

## Maltotriose
aFGF; Table 2
  IC50 aFGF: 58.7 µg/mL
[1]; Table 2
  IC50 Heparanase: 100 µg/mL
[1]; in words
  heparanase inhibitory activity: weakly inhibitory
bFGF; Table 2
  IC50 bFGF: 145 µg/mL
[2]; Table 2
  Anticoagulant Activity: 0.8%

## Mannohexaose
aFGF; Table 3
  IC50 aFGF: 5 µg/mL
[1]; Table 3
  IC50 Heparanase: 3 µg/mL
bFGF; Table 3
  IC50 bFGF: 11 µg/mL
[2]; Table 3
  Anticoagulant Activity: 0.8%

## Mannotetraose
aFGF; Table 3
  IC50 aFGF: 5 µg/mL
[1]; Table 3
  IC50 Heparanase: 6 µg/mL
bFGF; Table 3
  IC50 bFGF: 20 µg/mL
[2]; Table 3
  Anticoagulant Activity: 0.4%

## Mannotriose
[1]; Table 3
  IC50 Heparanase: 25 µg/mL
[2]; Table 3
  Anticoagulant Activity: 0.3%
